Results reported in patent US9212204B2, “Treatment of rett syndrome using glycyl-L-2-methylprolyl-L-glutamic acid” (priority 2011, dated 2015).
Non-standard residues stand in square brackets, D forms with d. Residues, ends and D or L forms follow the SMILES beside them. αMeP = C[C@@]1(C(=O)O)CCCN1

Assays:
[1] = test system: neurons in the CA3 region of the hippocampus; assay: Neuron soma size in the hippocampus; type: in vivo, mouse
Experimental: We also measure the effect of G-2-MePE treatment on neuron soma size in the hippocampus. Mice are treated with G-2-MePE as described above for locomotor activity.

[2] = test system: animals with hypoxic-ischemic injuries caused by middle cerebral artery occlusion; conditions: MCaO; cited from earlier work
[3] = test system: adult MeCP2+/- female mice; assay: Optical imaging of intrinsic signals, ocular dominance plasticity; type: in vivo, mouse; conditions: monocularly deprived for 4 days, treated concurrently; aged P60 or more
Experimental: For the survival measurements, the nocturnal activity analysis and the immunoblot analysis, G-2-MePE (synthesised Albany Molecular Research Inc. (Albany, N.Y.) and supplied by Neuren Pharmaceuticals Limited) is administered daily via intra-peritoneal injections (20 mg/kg, vehicle=saline, 0.01% BSA). The treatment starts at PI 5 and is maintained throughout the course of the experiments. For intracellular physiology experiments, the mice are injected daily with G-2-MePE (20 mg/kg body weight, vehicle=saline, 0.01% BSA) for 2 weeks, from P15 to P28-P32 when they are used for acute slice preparation. For optical imaging experiments, mice are injected with G-2-MePE (20 mg/kg body weight, vehicle=saline, 0.01% BSA) daily from the day of the lid suture to the day of imaging.
Adult (>P60) wild type (SVEV or BL6) and MeCP2 (+/−) mutant females (BL6) are used for this experiment. The wild type control group is composed of both wild type littermates of MeCP2+/− females or wild type age matched SVEV females. For monocular deprivation, animals are anesthetized with Avertin (0.016 ml/g) and the eyelids of one eye is sutured for 4 days. […] During the imaging session, the animal is constantly oxygenated, its temperature maintained with a heating blanket and the eyes periodically treated with silicone oil; physiological conditions are constantly monitored. […]

[4] = test system: GFAP-positive reactive astrocytes; assay: GFAP staining, astrocytosis in aged brains; type: in vivo, rat; conditions: i.p.; 18-month old rats; 3 d after injection; vs vehicle p<0.05, particularly 0.12 and 12 mg/kg
Experimental: To carry out these studies, tissues were fixed and embedded in paraffin and sections obtained using standard methods. Coronal sections (6 μm) containing the level of the hippocampus were cut and mounted on chrome-alum-coated slides for staining. The sections were deparaffinized in xylene, dehydrated in a series of ethanol and incubated in 0.1 M phosphate buffered saline (PBS).
Primary antibodies against glial fibrillary acidic protein (GFAP) and proliferating cell nuclear antigen (PCNA) were used to mark reactive glial cells and cells undergoing apoptosis and proliferation, respectively. […]
Control sections were processed in the same way except the primary antibody was omitted from the incubation solution. The number of PCNA positive cells was counted in the subventricular zone and the GFAP positive cells was scored in the cerebral cortex.
Using GFAP as a marker for reactive astrocytes, the number of GFAP-positive cells was counted in the CA4 sub-region of the hippocampus of aged rats treated with G-2MeP or vehicle. […]
We also evaluated effects of G-2-MePE on astrocytosis in the CA4 sub-region of the hippocampus in aged rats. […]
GFAP-positive cells were counted using a computerised program (Discovery 1). G-2-MePE was administered intra-peritoneally and the numbers of GFAP-positive cells were assessed 3d after the injection. […]

## C[C@@]1(C(=O)N[C@@H](CCC(=O)O)C(=O)O)CCCN1C(=O)CN [Example G-2-MePE, Glycyl-L-2-methylprolyl-L-glutamic acid] (H-Gly-[αMeP]-Glu-OH)
[1]; KO animals
  average soma size: increases
[1]; wild type animals
  soma size: little or no effect
[2]
  non-convulsive seizures (NCS): inhibit
[3]
  OD plasticity: reduces
[4]
  number of reactive astrocytes (GFAP) in the CA4 region of the hippocampus: reduced
